# Legend:
# [1] = target: T1, fucosyltransferase IX (FTIX) (Homo sapiens, UniProt Q9Y231); assay: FTIX exofucosylation of mesenchymal stem cells (MSC), Le^x by flow cytometry; type: cell-based; details: MSCs; same conditions as RPMI-8402 cells
# T1 sequence (Q9Y231 1-359): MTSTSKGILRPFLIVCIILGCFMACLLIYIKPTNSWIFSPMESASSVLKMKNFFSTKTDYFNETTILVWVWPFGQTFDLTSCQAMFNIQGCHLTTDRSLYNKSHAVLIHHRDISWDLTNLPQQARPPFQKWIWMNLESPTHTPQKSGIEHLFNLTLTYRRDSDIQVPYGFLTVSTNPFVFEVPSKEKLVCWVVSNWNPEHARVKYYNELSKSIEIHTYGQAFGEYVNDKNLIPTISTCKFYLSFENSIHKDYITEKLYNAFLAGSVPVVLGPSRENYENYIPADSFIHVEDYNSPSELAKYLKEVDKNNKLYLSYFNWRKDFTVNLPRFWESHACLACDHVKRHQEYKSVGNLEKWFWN
# Protocol: (§1) A Canto II (BD Biosciences) flow cytometer was utilized for flow cytometry and the data acquired was analyzed using FlowJo Software (Treestar). Cells were stained using antibodies specific to sLe^X (Alexa-Fluor 488 Mouse Anti-Human CD15s (BD Biosciences)), or Le^X (APC anti-human CD15 (SSEA-1) Antibody (BioLegend)).
# (§2) Cells of the RPMI-8402 cell line and MSC cell line were treated with either 0.3 ug of fucosyltransferase VI (FTVI), 2.7 ug of fucosyltransferase VII (FTVII), 1.0 ug fucosyltransferase IX (FTIX) or buffer-only at 37° C. for 60 minutes. All reactions contained at 1×10^6 cells/30 ul in HBSS with 10 mM Hepes, 0.1% Human Serum Albumin, and 1.0 mM GDP fucose (GDP-Fuc) (Carbosynth) and the appropriate fucosytransferase. Then, mimetic 1 was added to each of the treatment groups in molar equivalents with respect to GDP-Fuc with each of the fucosytransferases. […]
# (§3) Mimetic 1 (FIG. 1) was tested as an inhibitor of FT-mediated exofucosylation on these cells and the extent of fucosylation was monitored using antibodies that detect the creation of the relevant fucosylated epitopes, i.e., sLe^x or Le^x. […]
# [2] = target: T1, fucosyltransferase IX (FTIX); assay: FTIX exofucosylation of RPMI-8402 cells, Le^x by flow cytometry; type: cell-based
# Protocol: as §1, §2, §3
smiles,measurement,setting,value
CC1OC2Oc3ccc(CC(=O)O)cc3SC2C(O)C1O (stereo not drawn) [mimetic 1],inhibition of FTIX production of Le^x,[1],did not inhibit FTIX production of Le^x
same,inhibition of FTIX-mediated exofucosylation (Le^x creation),"[2]; RPMI-8402 cells, 1.0 mM GDP-Fuc with 1.0 mM or 2.0 mM mimetic 1",did not inhibit FTIX-mediated exofucosylation
same,effect of pre-incubation on FTIX-mediated exofucosylation,[2]; pre-incubation with 2.0 mM mimetic 1 prior to addition of GDP-Fuc,no effect

# — US12486298B2, “Fucosyltransferase specific inhibition using fucose mimetics” (THE FLORIDA INTERNATIONAL UNIVERSITY BOARD OF TRUSTEES, priority 2020, dated 2025)
